Measurements published in the supplement of paper PMC11208160.

assay: recombinant UMI read abundance after kanamycin selection (control-corrected) (log10(CPM+1)); higher = more efficient recombination; extreme values may be limits of the assay; sequences stand for … in AGTGCAGAGAAAATCGGCCAGTTTTCTCTGCCTGCAGTCCGCATGCCGTGGGACCCCTTGGGTTCTAACCTGTTGCCTAGATTTATGCAGCGGACTGCCTTTCTCCCAAAGTGATAAACCGG…AGGTTGGTTTCACT; site = the 11-nt donor
Method in brief: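 Under IPTG (0.07 mM) plus kanamycin, or without selection, Escherichia coli carrying a UMI-tagged donor and donor-binding-loop pair library and a target plasmid for the IS621 bridge recombinase were plated in two replicates. Recombinant UMIs were PCR-amplified across the donor–target junction and sequenced. Counts were converted to CPM, averaged over replicates, scaled by control-derived factors and reported as log10(CPM+1).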
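Note: IS621 bridge recombinase in Escherichia coli cells against a fixed T5 target plasmid.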

Sequence	recombinant UMI read abundance (log10)
AACCGTCCATGGACCGGTTTTCCCGGTAATCCGTATTTGTT (site AACCGTCCTAT)	0.0199
ACAATCGCATGGACCGGTTTTCCCGGTAATCCGTATTTGAA (site ACAATCGCTTT)	2.55
GAGGCCTCATGGACCGGTTTTCCCGGTAATCCGTATTTGAG (site GAGGCCTCTCT)	1.42
TGTTCCGCATGGACCGGTTTTCCCGGTAATCCGTATTTGTA (site TGTTCCGCTTA)	0.0982
GTAGGTACATGGACCGGTTTTCCCGGTAATCCGTATTTGTC (site GTAGGTACTGT)	1.35
CTGCATGCATGGACCGGTTTTCCCGGTAATCCGTATTTGGT (site GTGCATGCTAC)	0.0408
CGTGAGTCATGGACCGGTTTTCCCGGTAATCCGTATTTGCG (site CGTGAGTCTCG)	2.58
TAAGCAGCATGGACCGGTTTTCCCGGTAATCCGTATTTGCT (site GAAGCAGCTAG)	0.00441
GTAGTATCATGGACCGGTTTTCCCGGTAATCCGTATTTGAC (site ATAGTATCTGT)	3.09
AAGATTTCATGGACCGGTTTTCCCGGTAATCCGTATTTGGA (site AAGATTTCTTC)	2.1
CCGTCTGCATGGACCGGTTTTCCCGGTAATCCGTATTTGCT (site CCGTCTGCTAG)	0.241
GGTCTAACATGGACCGGTTTTCCCGGTAATCCGTATTTGTA (site GGTCAAACTTA)	0.0026
GGGTTGACATGGACCGGTTTTCCCGGTAATCCGTATTTGAA (site GGGTTGACTTT)	0.979
GACAATACATGGACCGGTTTTCCCGGTAATCCGTATTTGGC (site GACAATACTGC)	1.59
CAATGCTCATGGACCGGTTTTCCCGGTAATCCGTATTTGGA (site CAATGCTCTTA)	2.13
GGCGATACATGGACCGGTTTTCCCGGTAATCCGTATTTGTT (site GGCGATACTAA)	1.81
AGGTTCCCATGGACCGGTTTTCCCGGTAATCCGTATTTGTG (site AGGTTCCCTCT)	0.0108
GCTTGCGCATGGACCGGTTTTCCCGGTAATCCGTATTTGAT (site GCTTGCTCTAT)	0
GTGAAAACATGGACCGGTTTTCCCGGTAATCCGTATTTGCT (site GTGAAAACTAG)	1.46
AGGCGACCATGGACCGGTTTTCCCGGTAATCCGTATTTGTT (site AGGCGACCTAA)	0.00859
TCTTCATCATGGACCGGTTTTCCCGGTAATCCGTATTTGTA (site TCTTCATCTTA)	0.00251
TACTAGACATGGACCGGTTTTCCCGGTAATCCGTATTTGCT (site TACTCGACTAG)	0.00336
CGTGAACCATGGACCGGTTTTCCCGGTAATCCGTATTTGAT (site CGAGAACCTAT)	0.0201
CAATTCCCATGGACCGGTTTTCCCGGTAATCCGTATTTGGT (site CAATTCCCTAG)	0
TCCAGCGCATGGACCGGTTTTCCCGGTAATCCGTATTTGCG (site TCCAGCGCTCG)	0.0428

Sequence	recombinant UMI read abundance (log10)
CGAGCTTCATGGACCGGTTTTCCCGGTAATCCGTATTTGCT (site CGAGCTTCTAG)	1.85
AAATATGCATGGACCGGTTTTCCCGGTAATCCGTATTTGGA (site AAATATGCTTC)	1.25
TGGCCGTCATGGACCGGTTTTCCCGGTAATCCGTATTTGGC (site TGGCCGCCTGC)	0
CACGGTCCATGGACCGGTTTTCCCGGTAATCCGTATTTGTT (site CACGGACCTAA)	0.00385
ACCTGGACATGGACCGGTTTTCCCGGTAATCCGTATTTGGG (site ACCTAGACTCC)	0.00306
ACATGTACATGGACCGGTTTTCCCGGTAATCCGTATTTGTG (site ACATCTACTCA)	0.00614
CTGGTATCATGGACCGGTTTTCCCGGTAATCCGTATTTGAC (site CTTGTATCTGT)	0.816
AGCGCAGCATGGACCGGTTTTCCCGGTAATCCGTATTTGCG (site AGCGCAGCTCG)	1.01
CAAGCGGCATGGACCGGTTTTCCCGGTAATCCGTATTTGTG (site CAAGCGTCTCA)	1.66
CGGAAACCATGGACCGGTTTTCCCGGTAATCCGTATTTGTT (site CGGAATCCTAA)	0
GTTAGCTCATGGACCGGTTTTCCCGGTAATCCGTATTTGTG (site GTTAGCTCTCA)	0.415
AATGTGTCATGGACCGGTTTTCCCGGTAATCCGTATTTGAA (site AATGTGTCTAT)	0.324
GCGAAACCATGGACCGGTTTTCCCGGTAATCCGTATTTGCT (site GCGAAAACTAG)	0
ACAGTATCATGGACCGGTTTTCCCGGTAATCCGTATTTGCA (site ACAGTACCTGG)	0
AAGAAGACATGGACCGGTTTTCCCGGTAATCCGTATTTGCA (site ATGAAGACTTG)	1.95
CGACCGACATGGACCGGTTTTCCCGGTAATCCGTATTTGTT (site CGAACGACTAA)	0.0187
TGTGCCCCATGGACCGGTTTTCCCGGTAATCCGTATTTGTA (site TGTACCCCTTA)	0.126
CATCCAACATGGACCGGTTTTCCCGGTAATCCGTATTTGTC (site CATCCAACTGA)	2.17
CGATAGACATGGACCGGTTTTCCCGGTAATCCGTATTTGTT (site CGATAGACTAA)	2
CTACTAACATGGACCGGTTTTCCCGGTAATCCGTATTTGGA (site CTATTAACTTC)	1.29
TTCTATACATGGACCGGTTTTCCCGGTAATCCGTATTTGAC (site GTCTATACTGT)	0
TTTAGAGCATGGACCGGTTTTCCCGGTAATCCGTATTTGTT (site TTTAGAGCTAA)	0.975
GTCACGACATGGACCGGTTTTCCCGGTAATCCGTATTTGGT (site GTCACGACTAC)	1.06
CCCTTCTCATGGACCGGTTTTCCCGGTAATCCGTATTTGGG (site CCGTTCTCTCC)	0
CCGTTAACATGGACCGGTTTTCCCGGTAATCCGTATTTGTG (site CCGTTATCTCA)	0.00955

Sequence	recombinant UMI read abundance (log10)
CCCATATCATGGACCGGTTTTCCCGGTAATCCGTATTTGTC (site CCCATAGCTGA)	0
CGCGGAACATGGACCGGTTTTCCCGGTAATCCGTATTTGTT (site CGTGGAACTAA)	0.00441
TGCTAGGCATGGACCGGTTTTCCCGGTAATCCGTATTTGGC (site TGCTAGGCTCC)	0.013
GTAGTCGCATGGACCGGTTTTCCCGGTAATCCGTATTTGCG (site GTAGTCACTCG)	1.24
CGCCGTACATGGACCGGTTTTCCCGGTAATCCGTATTTGCA (site CGCCGTACTGG)	0.685
CACTGCCCATGGACCGGTTTTCCCGGTAATCCGTATTTGTT (site CACAGCCCTAA)	0.0209
AATCTAACATGGACCGGTTTTCCCGGTAATCCGTATTTGCT (site AATCTAACTAG)	0
GGAATTCCATGGACCGGTTTTCCCGGTAATCCGTATTTGCA (site GGAATTCCTTG)	0
CCCTTCTCATGGACCGGTTTTCCCGGTAATCCGTATTTGTG (site CCCTTCTCTCG)	0.995
CGTTTGGCATGGACCGGTTTTCCCGGTAATCCGTATTTGTT (site CGTTTGGCTAG)	0.989
CCGTTTACATGGACCGGTTTTCCCGGTAATCCGTATTTGCT (site CCGTTTCCTAG)	0
GTTCGAGCATGGACCGGTTTTCCCGGTAATCCGTATTTGCA (site GTTCGAGCTAG)	0
CCCCTCCCATGGACCGGTTTTCCCGGTAATCCGTATTTGCG (site CCCCTCCCTCG)	0.014
AAGACTACATGGACCGGTTTTCCCGGTAATCCGTATTTGAC (site AGGACTACTGT)	1.33
CGGGTCACATGGACCGGTTTTCCCGGTAATCCGTATTTGTC (site CGGGTCACTGA)	3.01
GCCAATTCATGGACCGGTTTTCCCGGTAATCCGTATTTGCC (site ACCAATTCTGG)	0
GTAGTCGCATGGACCGGTTTTCCCGGTAATCCGTATTTGCG (site GTAGTTGCTCG)	0.00541
AGCCTTTCATGGACCGGTTTTCCCGGTAATCCGTATTTGAC (site AGCCTTTCTGT)	0
GATCCGGCATGGACCGGTTTTCCCGGTAATCCGTATTTGAT (site GATCCGGCTAT)	0.0999
AAATGCTCATGGACCGGTTTTCCCGGTAATCCGTATTTGAA (site GAATGCTCTTT)	0.961
CACCCTACATGGACCGGTTTTCCCGGTAATCCGTATTTGAG (site CCCCCTACTCT)	0.0201
TCATAGACATGGACCGGTTTTCCCGGTAATCCGTATTTGCG (site TCATAGACTCG)	1.87
AATGTGTCATGGACCGGTTTTCCCGGTAATCCGTATTTGAC (site AATGTGGCTGT)	0
AATTATGCATGGACCGGTTTTCCCGGTAATCCGTATTTGCA (site AATTATGCTTT)	0.00931
AGCAGTACATGGACCGGTTTTCCCGGTAATCCGTATTTGAT (site AGCAGTACTAT)	1.79
